From PMC8482806, “A Novel Blood-Brain Barrier-Permeable Chemotherapeutic Agent for the Treatment of Glioblastoma” (Cureus, 2021)

Assay: [14C]-QBS10072S distribution by quantitative whole-body autoradiography in mice with intracranial LN229 tumors
Assay type: in vivo, mouse
Settings: 5 mg/kg IV
Procedure: Athymic mice with intracranial implanted LN229 cells received a single IV dose of 5 mg/kg and 200 μCi/kg [14C]-QBS10072S into the tail vein using the formulation described above. Animals (one per time point) were sacrificed one, eight, and 24 hours post-dose, and frozen in a hexane/solid carbon dioxide bath for at least 10 minutes. The carcasses were processed as described for quantitative whole-body autoradiography. Briefly, sagittal sections (~ 40 μm thick) were cut using a microtome, mounted, and exposed to a [14C]-sensitive phosphor imaging plate for four days. The images were scanned and quantitated by image densitometry using MCID image analysis software. The concentrations of radioactivity were expressed as the μg equivalents of test article per gram sample (μg equiv/g). The upper and lower limits of quantification were 550 and 0.008 μg equiv/g, respectively (QPS, Newark, DE).

Q: Which “Tissue Concentration” value (Adipose (brown), 1 h) does the source give for `Cc1ccc(N(CCCl)C[14CH2]Cl)cc1C[C@H](N)CC(=O)O.Cl.Cl` [[14C]-QBS10072S, [chloroethyl-2-14C]-QBS10072S×2HCl] here?
A: Its value is 2.528 µg equiv/g tissue.

Q: What about the “Tissue Concentration” value (Adipose (brown), 8 h) of the same compound?
A: Its value is 0.440 µg equiv/g tissue.

Q: What about the “Tissue Concentration” value (Adipose (brown), 24 h) of the same compound?
A: Its value is 0.577 µg equiv/g tissue.

Q: And the “Tissue Concentration” value (Adipose (white), 1 h)?
A: The value was 0.409 µg equiv/g tissue.

Q: And the “Tissue Concentration” value (Adipose (white), 8 h)?
A: Its value is 0.348 µg equiv/g tissue.

Q: And the “Tissue Concentration” value (Adipose (white), 24 h)?
A: Its value is 0.381 µg equiv/g tissue.

Q: And the “Tissue Concentration” value (Adrenal Gland, 1 h)?
A: The value was 2.700 µg equiv/g tissue.

Q: And the “Tissue Concentration” value (Adrenal Gland, 8 h)?
A: The value was 0.638 µg equiv/g tissue.

Q: And the “Tissue Concentration” value (Adrenal Gland, 24 h)?
A: The value was 0.533 µg equiv/g tissue.

Q: And the “Tissue Concentration” value (Blood (cardiac), 1 h)?
A: The value was 2.204 µg equiv/g tissue.

Q: And the “Tissue Concentration” value (Blood (cardiac), 8 h)?
A: The value was 0.581 µg equiv/g tissue.

Q: What about the “Tissue Concentration” value (Blood (cardiac), 24 h) of the same compound?
A: The value was 0.734 µg equiv/g tissue.

Q: What about the “Tissue Concentration” value (Bone, 1 h) of the same compound?
A: Its value is 0.350 µg equiv/g tissue.

Q: And the “Tissue Concentration” value (Bone, 8 h)?
A: Its value is 0.165 µg equiv/g tissue.

Q: What about the “Tissue Concentration” value (Bone, 24 h) of the same compound?
A: The value was 0.065 µg equiv/g tissue.

Q: And the “Tissue Concentration” value (Brain (cerebellum), 1 h)?
A: Its value is 0.395 µg equiv/g tissue.

Q: And the “Tissue Concentration” value (Brain (cerebellum), 8 h)?
A: Its value is 0.105 µg equiv/g tissue.

Q: What about the “Tissue Concentration” value (Brain (cerebellum), 24 h) of the same compound?
A: The value was 0.120 µg equiv/g tissue.

Q: What about the “Tissue Concentration” value (Brain (cerebrum), 1 h) of the same compound?
A: The value was 0.469 µg equiv/g tissue.

Q: And the “Tissue Concentration” value (Brain (cerebrum), 8 h)?
A: The value was 0.109 µg equiv/g tissue.

Q: And the “Tissue Concentration” value (Brain (cerebrum), 24 h)?
A: Its value is 0.101 µg equiv/g tissue.

Q: What about the “Tissue Concentration” value (Brain (medulla), 1 h) of the same compound?
A: The value was 0.403 µg equiv/g tissue.

Q: And the “Tissue Concentration” value (Brain (medulla), 8 h)?
A: The value was 0.081 µg equiv/g tissue.

Q: And the “Tissue Concentration” value (Brain (medulla), 24 h)?
A: The value was 0.118 µg equiv/g tissue.

Q: And the “Tissue Concentration” value (Cecum (contents), 1 h)?
A: The value was 3.895 µg equiv/g tissue.

Q: And the “Tissue Concentration” value (Cecum (contents), 8 h)?
A: The value was 24.266 µg equiv/g tissue.

Q: And the “Tissue Concentration” value (Cecum (contents), 24 h)?
A: Its value is 9.502 µg equiv/g tissue.

Q: And the “Tissue Concentration” value (Cecum, 1 h)?
A: The value was 2.419 µg equiv/g tissue.

Q: And the “Tissue Concentration” value (Cecum, 8 h)?
A: Its value is 0.924 µg equiv/g tissue.

Q: What about the “Tissue Concentration” value (Cecum, 24 h) of the same compound?
A: The value was 0.655 µg equiv/g tissue.

Q: And the “Tissue Concentration” value (Choroid Plexus, 1 h)?
A: The value was 0.815 µg equiv/g tissue.

Q: And the “Tissue Concentration” value (Choroid Plexus, 8 h)?
A: Its value is 0.159 µg equiv/g tissue.

Q: What about the “Tissue Concentration” value (Choroid Plexus, 24 h) of the same compound?
A: The value was 0.186 µg equiv/g tissue.

Q: What about the “Tissue Concentration” value (Esophagus, 1 h) of the same compound?
A: The value was 1.211 µg equiv/g tissue.

Q: And the “Tissue Concentration” value (Esophagus, 8 h)?
A: The value was 0.442 µg equiv/g tissue.

Q: What about the “Tissue Concentration” value (Esophagus, 24 h) of the same compound?
A: Its value is 0.565 µg equiv/g tissue.

Q: And the “Tissue Concentration” value (Harderian Gland, 1 h)?
A: Its value is 3.371 µg equiv/g tissue.

Q: What about the “Tissue Concentration” value (Harderian Gland, 8 h) of the same compound?
A: Its value is 0.468 µg equiv/g tissue.

Q: And the “Tissue Concentration” value (Harderian Gland, 24 h)?
A: Its value is 0.329 µg equiv/g tissue.

Q: What about the “Tissue Concentration” value (Heart, 1 h) of the same compound?
A: Its value is 2.165 µg equiv/g tissue.

Q: What about the “Tissue Concentration” value (Heart, 8 h) of the same compound?
A: The value was 0.489 µg equiv/g tissue.

Q: What about the “Tissue Concentration” value (Heart, 24 h) of the same compound?
A: Its value is 0.480 µg equiv/g tissue.

Q: What about the “Tissue Concentration” value (Kidney (outer medulla), 1 h) of the same compound?
A: The value was 6.281 µg equiv/g tissue.

Q: What about the “Tissue Concentration” value (Kidney (outer medulla), 8 h) of the same compound?
A: Its value is 1.372 µg equiv/g tissue.

Q: What about the “Tissue Concentration” value (Kidney (outer medulla), 24 h) of the same compound?
A: Its value is 1.164 µg equiv/g tissue.

Q: What about the “Tissue Concentration” value (Large Intestine, 1 h) of the same compound?
A: The value was 1.437 µg equiv/g tissue.

Q: What about the “Tissue Concentration” value (Liver, 1 h) of the same compound?
A: The value was 5.522 µg equiv/g tissue.

Q: What about the “Tissue Concentration” value (Liver, 8 h) of the same compound?
A: The value was 0.674 µg equiv/g tissue.

Q: What about the “Tissue Concentration” value (Liver, 24 h) of the same compound?
A: The value was 0.598 µg equiv/g tissue.

Q: What about the “Tissue Concentration” value (Lung, 1 h) of the same compound?
A: Its value is 2.943 µg equiv/g tissue.

Q: And the “Tissue Concentration” value (Lung, 8 h)?
A: The value was 0.684 µg equiv/g tissue.

Q: What about the “Tissue Concentration” value (Lung, 24 h) of the same compound?
A: The value was 0.620 µg equiv/g tissue.

Q: What about the “Tissue Concentration” value (Mammary Gland Region, 1 h) of the same compound?
A: The value was 0.485 µg equiv/g tissue.

Q: What about the “Tissue Concentration” value (Mammary Gland Region, 8 h) of the same compound?
A: The value was 0.173 µg equiv/g tissue.

Q: What about the “Tissue Concentration” value (Mammary Gland Region, 24 h) of the same compound?
A: Its value is 0.365 µg equiv/g tissue.

Q: And the “Tissue Concentration” value (Ovary, 1 h)?
A: The value was 2.564 µg equiv/g tissue.

Q: And the “Tissue Concentration” value (Ovary, 8 h)?
A: Its value is 0.563 µg equiv/g tissue.

Q: And the “Tissue Concentration” value (Ovary, 24 h)?
A: The value was 0.585 µg equiv/g tissue.

Q: And the “Tissue Concentration” value (Pancreas, 1 h)?
A: The value was 3.270 µg equiv/g tissue.

Q: And the “Tissue Concentration” value (Pancreas, 8 h)?
A: The value was 0.546 µg equiv/g tissue.

Q: And the “Tissue Concentration” value (Pancreas, 24 h)?
A: The value was 0.442 µg equiv/g tissue.

Q: And the “Tissue Concentration” value (Pituitary Gland, 1 h)?
A: Its value is 1.689 µg equiv/g tissue.

Q: And the “Tissue Concentration” value (Pituitary Gland, 8 h)?
A: The value was 0.468 µg equiv/g tissue.

Q: What about the “Tissue Concentration” value (Pituitary Gland, 24 h) of the same compound?
A: Its value is 0.128 µg equiv/g tissue.

Q: What about the “Tissue Concentration” value (Salivary Gland, 1 h) of the same compound?
A: Its value is 2.429 µg equiv/g tissue.

Q: And the “Tissue Concentration” value (Salivary Gland, 8 h)?
A: Its value is 0.428 µg equiv/g tissue.

Q: What about the “Tissue Concentration” value (Salivary Gland, 24 h) of the same compound?
A: Its value is 0.368 µg equiv/g tissue.

Q: And the “Tissue Concentration” value (Skeletal Muscle, 1 h)?
A: The value was 1.123 µg equiv/g tissue.

Q: What about the “Tissue Concentration” value (Skeletal Muscle, 8 h) of the same compound?
A: The value was 0.602 µg equiv/g tissue.

Q: What about the “Tissue Concentration” value (Skeletal Muscle, 24 h) of the same compound?
A: Its value is 0.627 µg equiv/g tissue.

Q: And the “Tissue Concentration” value (Skin, 1 h)?
A: The value was 1.496 µg equiv/g tissue.

Q: What about the “Tissue Concentration” value (Skin, 8 h) of the same compound?
A: Its value is 0.479 µg equiv/g tissue.

Q: What about the “Tissue Concentration” value (Skin, 24 h) of the same compound?
A: Its value is 0.425 µg equiv/g tissue.

Q: And the “Tissue Concentration” value (Spinal Cord, 1 h)?
A: Its value is 0.480 µg equiv/g tissue.

Q: And the “Tissue Concentration” value (Spinal Cord, 8 h)?
A: Its value is 0.100 µg equiv/g tissue.

Q: And the “Tissue Concentration” value (Spinal Cord, 24 h)?
A: The value was 0.120 µg equiv/g tissue.

Q: And the “Tissue Concentration” value (Thyroid, 1 h)?
A: The value was 1.802 µg equiv/g tissue.

Q: What about the “Tissue Concentration” value (Thyroid, 8 h) of the same compound?
A: The value was 0.374 µg equiv/g tissue.

Q: And the “Tissue Concentration” value (Thyroid, 24 h)?
A: The value was 0.653 µg equiv/g tissue.

Q: And the “Tissue Concentration” value (Tumor High, 1 h)?
A: Its value is 2.836 µg equiv/g tissue.

Q: What about the “Tissue Concentration” value (Tumor High, 8 h) of the same compound?
A: The value was 0.575 µg equiv/g tissue.

Q: What about the “Tissue Concentration” value (Tumor High, 24 h) of the same compound?
A: Its value is 0.479 µg equiv/g tissue.

Q: And the “Tissue Concentration” value (Tumor Low, 1 h)?
A: Its value is 1.245 µg equiv/g tissue.

Q: What about the “Tissue Concentration” value (Tumor Low, 8 h) of the same compound?
A: Its value is 0.162 µg equiv/g tissue.

Q: What about the “Tissue Concentration” value (Tumor Low, 24 h) of the same compound?
A: Its value is 0.240 µg equiv/g tissue.

Q: What about the “Tissue Concentration” value (Tumor, 1 h) of the same compound?
A: Its value is 1.961 µg equiv/g tissue.

Q: And the “Tissue Concentration” value (Tumor, 8 h)?
A: Its value is 0.427 µg equiv/g tissue.

Q: What about the “Tissue Concentration” value (Tumor, 24 h) of the same compound?
A: The value was 0.275 µg equiv/g tissue.

Q: What about the “Tissue Concentration” value (Urinary Bladder (contents), 1 h) of the same compound?
A: Its value is 206.798 µg equiv/g tissue.

Q: What about the “Tissue Concentration” value (Urinary Bladder (contents), 8 h) of the same compound?
A: The value was 1.716 µg equiv/g tissue.

Q: And the “Tissue Concentration” value (Urinary Bladder (contents), 24 h)?
A: The value was 0.811 µg equiv/g tissue.

Q: What about the “Tissue Concentration” value (Urinary Bladder, 1 h) of the same compound?
A: Its value is 3.914 µg equiv/g tissue.

Q: What about the “Tissue Concentration” value (Urinary Bladder, 8 h) of the same compound?
A: Its value is 0.821 µg equiv/g tissue.

Q: And the “Tissue Concentration” value (Urinary Bladder, 24 h)?
A: Its value is 0.485 µg equiv/g tissue.

Q: What about the “Tissue Concentration” value (Uterus, 1 h) of the same compound?
A: The value was 1.849 µg equiv/g tissue.

Q: And the “Tissue Concentration” value (Uterus, 8 h)?
A: The value was 0.563 µg equiv/g tissue.

Q: What about the “Tissue Concentration” value (Uterus, 24 h) of the same compound?
A: Its value is 0.511 µg equiv/g tissue.

Q: And the “Tissue Concentration” value (Vagina, 1 h)?
A: The value was 1.337 µg equiv/g tissue.

Q: What about the “Tissue Concentration” value (Vagina, 8 h) of the same compound?
A: Its value is 0.640 µg equiv/g tissue.

Q: What about the “Tissue Concentration” value (Vagina, 24 h) of the same compound?
A: Its value is 0.629 µg equiv/g tissue.
